Here are results for 8 compounds from PubChem BioAssay (NCI).

Usually GI50 stands for the concentration at which growth is held to half of that of the control. Usually TGI stands for the concentration giving total growth inhibition. Higher therefore signals lower sensitivity of the cells.

Some test systems named below: RPMI-8226 leukemia; A549 NSCLC; SF-268 CNS; 786-0 renal; SNB-19 CNS; PC-3 prostate; OVCAR-5 ovarian; SK-MEL-28 melanoma; HT29 colon; K-562 leukemia.
Assay in all cases: DTP human tumour cell line panel, 48 h

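Grown in 96-well plates, cells were treated for 48 hours with each compound at five concentrations. Insufficient inhibition: endpoint recorded as highest concentration tested. GI50: concentration for 50% inhibition of growth. TGI: concentration producing complete growth inhibition.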 Bounds are passed on as bounds.

Consider `Cc1ccc2c(c1)C(C)Cc1c(Cl)ncnc1N2C` (stereo not drawn), for which the GI50 was 3.56 µM in the assay with RPMI-8226 leukemia; 4.26 µM in the assay with A549 NSCLC; 2.5 µM in the assay with SF-268 CNS; 3.25 µM in the assay on 786-0 renal; 4.89 µM in the assay on SNB-19 CNS; 3.62 µM in the assay on PC-3 prostate. Moreover, the GI50 in the assay on OVCAR-5 ovarian was 5.05 µM; in the assay with SK-MEL-28 melanoma it was 0.905 µM; in the assay on HT29 colon, 3.48 µM; with K-562 leukemia it was 3.47 µM. The TGI in the assay on RPMI-8226 leukemia is 17.2 µM; in the assay with A549 NSCLC, over 100 µM; with SF-268 CNS, 13.8 µM; in the assay on 786-0 renal it was 17.8 µM; with SNB-19 CNS, 49.7 µM; with PC-3 prostate it was 72.1 µM. For the same compound, the TGI with OVCAR-5 ovarian is 49.3 µM; in the assay with SK-MEL-28 melanoma, 48.7 µM; in the assay on HT29 colon, 47.2 µM; in the assay on K-562 leukemia, over 100 µM.

As to `O=C1C2C(c3ccccc3)NC(c3ccccc3)C1C(c1ccccc1)NC2c1ccccc1` (stereo not drawn), the TGI in the assay on RPMI-8226 leukemia, in the assay on A549 NSCLC, in the assay with SF-268 CNS, in the assay with 786-0 renal, with SNB-19 CNS and in the assay on PC-3 prostate was over 100 µM in each case. The TGI in the assay with OVCAR-5 ovarian, in the assay on SK-MEL-28 melanoma, with HT29 colon and with K-562 leukemia was over 100 µM each time.

For the compound `NC1=C(c2nc(-c3ccccc3)cs2)C(c2ccc(Br)cc2)c2c(c3ccccc3oc2=O)O1` (stereo not drawn), the GI50 with A549 NSCLC was 46 µg/mL; with SF-268 CNS, 89.7 µg/mL; in the assay with 786-0 renal, 75.6 µg/mL; in the assay on SNB-19 CNS, 58.3 µg/mL; in the assay on PC-3 prostate it was over 150 µg/mL; in the assay with OVCAR-5 ovarian it was over 150 µg/mL. Also, the GI50 with SK-MEL-28 melanoma was 79.9 µg/mL; in the assay on HT29 colon, 148 µg/mL; with K-562 leukemia it was 77.1 µg/mL. For the same compound, the TGI with A549 NSCLC, with SF-268 CNS, in the assay with 786-0 renal, in the assay with SNB-19 CNS, in the assay with PC-3 prostate and in the assay with OVCAR-5 ovarian was over 150 µg/mL each time. In addition, the TGI in the assay on SK-MEL-28 melanoma, with HT29 colon and in the assay on K-562 leukemia was over 150 µg/mL each time.

As to `Nc1nc(N)c2c(n1)NC(c1ccc(F)cc1)C1CCc3ccccc3C1=N2` (stereo not drawn), the GI50 is 1.81 µM in the assay with RPMI-8226 leukemia; 10.2 µM in the assay on A549 NSCLC; 8.64 µM in the assay on SF-268 CNS; 6.9 µM in the assay with 786-0 renal; 12 µM in the assay on SNB-19 CNS; 2.03 µM with PC-3 prostate. Also, the GI50 with OVCAR-5 ovarian was 13.1 µM; in the assay with SK-MEL-28 melanoma, 7.16 µM; in the assay on HT29 colon, 3.84 µM. Also, the TGI was found to be 5.11 µM with RPMI-8226 leukemia; 24.3 µM with A549 NSCLC; 23.7 µM in the assay with SF-268 CNS; 20.1 µM in the assay with 786-0 renal; 24.8 µM in the assay on SNB-19 CNS; 9.31 µM in the assay with PC-3 prostate. Further, the TGI was 26.3 µM with OVCAR-5 ovarian, 19.7 µM with SK-MEL-28 melanoma and 15 µM with HT29 colon.

Regarding `O=C(c1ccccc1)C(Br)C(Br)c1cccc([N+](=O)[O-])c1` (stereo not drawn), the GI50 was 2.15 µM in the assay with RPMI-8226 leukemia; 14.3 µM in the assay on A549 NSCLC; 2.47 µM in the assay on SF-268 CNS; 1.61 µM in the assay with 786-0 renal; 3.32 µM in the assay on SNB-19 CNS; 2.26 µM in the assay on PC-3 prostate. Further, the GI50 was 2.46 µM with OVCAR-5 ovarian, 1.87 µM with SK-MEL-28 melanoma and 3.45 µM in the assay on HT29 colon. Moreover, the TGI with RPMI-8226 leukemia came out at 6.24 µM; with A549 NSCLC it was 32.3 µM; with SF-268 CNS, 6.77 µM; in the assay with 786-0 renal, 3.07 µM; in the assay on SNB-19 CNS, 12.9 µM; in the assay on PC-3 prostate it was 6.84 µM. The TGI with OVCAR-5 ovarian was 5.65 µM; in the assay on SK-MEL-28 melanoma, 3.64 µM; with HT29 colon it was over 100 µM.

For `Cc1cc(=O)[nH]c2cc3c(c4c(n3Cc3ccc(Cl)cc3Cl)CC(C)(C)CC4=O)c(O)c12`, the GI50 in the assay with RPMI-8226 leukemia is over 100 µM; with A549 NSCLC, 46.3 µM; with SF-268 CNS it was 76.1 µM; with 786-0 renal, 0.0145 µM; with SNB-19 CNS, 55.8 µM; with PC-3 prostate, over 100 µM. Further, the GI50 with SK-MEL-28 melanoma, with HT29 colon and with K-562 leukemia was over 100 µM each time. Further, the TGI in the assay with RPMI-8226 leukemia was over 100 µM; in the assay with A549 NSCLC, over 100 µM; in the assay on SF-268 CNS, over 100 µM; with 786-0 renal, 0.134 µM; in the assay with SNB-19 CNS it was over 100 µM; in the assay with PC-3 prostate it was over 100 µM. For the same compound, the TGI with SK-MEL-28 melanoma, in the assay on HT29 colon and in the assay with K-562 leukemia was over 100 µM throughout.

On to `Cc1cc2[nH]c(=O)c3c4ccccc4cn3c2cc1C`, for which the GI50 with RPMI-8226 leukemia was 6.75 µM; in the assay with A549 NSCLC it was 14.8 µM; in the assay on SF-268 CNS it was 15.3 µM; in the assay on 786-0 renal, 10.7 µM; in the assay on SNB-19 CNS, 16.3 µM; with PC-3 prostate it was 12 µM. Besides, the GI50 is 13.8 µM with OVCAR-5 ovarian, 14.8 µM with SK-MEL-28 melanoma and 6.09 µM in the assay with HT29 colon. In addition, the TGI with RPMI-8226 leukemia came out at 29.8 µM; in the assay with A549 NSCLC, 37.7 µM; in the assay on SF-268 CNS, 32.4 µM; with 786-0 renal it was 22.7 µM; in the assay with SNB-19 CNS, 36.7 µM; with PC-3 prostate, 25.4 µM. The TGI in the assay with OVCAR-5 ovarian is 27.4 µM; in the assay on SK-MEL-28 melanoma, 35.1 µM; in the assay with HT29 colon, over 100 µM.

In the case of `COC(=O)C1CCCN1C(=O)[C@@H]1CCCN1C(=O)[C@H](Cc1c[nH]c2ccccc12)NC(=S)Nc1cc(C(F)(F)F)cc(C(F)(F)F)c1` (stereo partly drawn), the GI50 in the assay on RPMI-8226 leukemia is 2.93 µM; in the assay with A549 NSCLC it was 1.98 µM; in the assay with SF-268 CNS, 3.46 µM; in the assay with 786-0 renal it was 2.52 µM; in the assay with SNB-19 CNS, 2.7 µM; with PC-3 prostate, 1.91 µM. The GI50 with SK-MEL-28 melanoma is 3.54 µM; in the assay with HT29 colon, 1.89 µM; in the assay on K-562 leukemia, 2.92 µM. The total growth inhibition concentration (TGI) came out at 8 µM with RPMI-8226 leukemia; 6.92 µM with A549 NSCLC; 13.6 µM with SF-268 CNS; 6.86 µM in the assay with 786-0 renal; 12.1 µM in the assay with SNB-19 CNS; 5.32 µM in the assay with PC-3 prostate. In addition, the TGI in the assay with SK-MEL-28 melanoma turned out to be 10.7 µM; in the assay on HT29 colon it was 3.44 µM; with K-562 leukemia, 13.3 µM.
